Assay results from PubChem BioAssay AID248 (DTP/NCI, 2004).
“And” between values parts separate entries of the source, which are not always exact repeats. Equal entries are not always repeated. Toxic doses and inconclusive results are not listed. Rule as the data show it: active = T/C of 150% or more; inactive = T/C below 125%.

System: L1210 leukemia ip in BDF1 mice, survival T/C
Experiment: NCI In Vivo Anticancer Drug Screen. Data for tumor model L1210 Leukemia (intraperitoneal) in B6D2F1 (BDF1) mice
Conditions: endpoint: mean survival time, higher = longer survival
In short: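 In this screen, tumor-bearing mice given compound are compared to those given vehicle, and their survival values are reported as a treated-to-control quotient.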

[1] = dose: 100.0 mg/kg/injection, schedule: Q04DX003 (ip), vehicle: saline with Tween-80
[2] = dose: 200.0 mg/kg/injection, schedule: Q04DX003 (ip), vehicle: saline with Tween-80
[3] = dose: 400.0 mg/kg/injection, schedule: Q04DX003 (ip), vehicle: saline with Tween-80
[4] = dose: 50.0 mg/kg/injection, schedule: Q04DX003 (ip), vehicle: Klucel (hydroxypropylcellulose) (HPC)
[5] = dose: 100.0 mg/kg/injection, schedule: Q04DX003 (ip), vehicle: Klucel (hydroxypropylcellulose) (HPC)
[6] = dose: 200.0 mg/kg/injection, schedule: Q04DX003 (ip), vehicle: Klucel (hydroxypropylcellulose) (HPC)
[7] = dose: 400.0 mg/kg/injection, schedule: Q04DX003 (ip), vehicle: Klucel (hydroxypropylcellulose) (HPC)
[8] = dose: 100.0 mg/kg/injection, schedule: Q01DX009 (ip), vehicle: Klucel (hydroxypropylcellulose) (HPC)
[9] = dose: 200.0 mg/kg/injection, schedule: Q01DX009 (ip), vehicle: Klucel (hydroxypropylcellulose) (HPC)
[10] = dose: 400.0 mg/kg/injection, schedule: Q01DX009 (ip), vehicle: Klucel (hydroxypropylcellulose) (HPC)
[11] = dose: 100.0 mg/kg/injection, schedule: Q01DX001 (ip), vehicle: saline with Tween-80
[12] = dose: 100.0 mg/kg/injection, schedule: Q01DX009 (ip), vehicle: saline with Tween-80
[13] = dose: 100.0 mg/kg/injection, schedule: Q04DX002 (ip), vehicle: saline with Tween-80
[14] = dose: 200.0 mg/kg/injection, schedule: Q01DX001 (ip), vehicle: saline with Tween-80
[15] = dose: 200.0 mg/kg/injection, schedule: Q01DX009 (ip), vehicle: saline with Tween-80
[16] = dose: 400.0 mg/kg/injection, schedule: Q01DX009 (ip), vehicle: saline with Tween-80

Measured: T/C

CC(=O)Nc1ccc2c(c1)C(NC(=O)/C=C\C(=O)O)c1ccccc1-2 (stereo unspecified)
inactive: [1] 111 % of control | [2] 98 % of control | [3] 107 % of control

O=C(O)CCC(=O)Nc1ccc2c(c1)B(O)OC2
inactive: [4] 101 % of control | [5] 96 % of control and 90 % of control | [6] 96 % of control | [7] 88 % of control

CCCCCCCCCCCCCCOc1ccc(Cc2ccccc2)cc1
inactive: [5] 91 % of control | [6] 90 % of control | [7] 88 % of control

CC(COC(=O)c1ccccc1)(COC(=O)c1ccccc1)COC(=O)c1ccccc1
inactive: [8] 96 % of control | [5] 113 % of control | [9] 104 % of control | [6] 99 % of control | [10] 107 % of control | [7] 96 % of control

COC(=O)c1ccccc1NC(=O)c1c(-c2ccccc2Cl)noc1C
inactive: [8] 99 % of control | [9] 94 % of control | [10] 98 % of control

CCOC(=O)NCc1cccc2ccccc12
inactive: dose: 50.0 mg/kg/injection, schedule: Q01DX001 (ip), vehicle: Klucel (hydroxypropylcellulose) (HPC) 93 % of control | dose: 100.0 mg/kg/injection, schedule: Q01DX001 (ip), vehicle: Klucel (hydroxypropylcellulose) (HPC) 98 % of control | dose: 200.0 mg/kg/injection, schedule: Q01DX001 (ip), vehicle: Klucel (hydroxypropylcellulose) (HPC) 90 % of control | dose: 400.0 mg/kg/injection, schedule: Q01DX001 (ip), vehicle: Klucel (hydroxypropylcellulose) (HPC) 86 % of control

O=C(Nc1ccc(Cl)c(Cl)c1)OCCCl
inactive: dose: 75.0 mg/kg/injection, schedule: Q01DX001 (ip), vehicle: saline 89 % of control | dose: 150.0 mg/kg/injection, schedule: Q01DX001 (ip), vehicle: saline 109 % of control

COc1ccccc1N=NN(C)C
inactive: dose: 1.0 mg/kg/injection, schedule: Q01DX009 (ip), vehicle: Klucel (hydroxypropylcellulose) (HPC) 115 % of control | dose: 3.0 mg/kg/injection, schedule: Q01DX009 (ip), vehicle: Klucel (hydroxypropylcellulose) (HPC) 101 % of control | dose: 3.12 mg/kg/injection, schedule: Q01DX009 (ip), vehicle: Klucel (hydroxypropylcellulose) (HPC) 100 % of control | dose: 3.12 mg/kg/injection, schedule: Q04DX003 (ip), vehicle: Klucel (hydroxypropylcellulose) (HPC) 95 % of control | dose: 6.0 mg/kg/injection, schedule: Q01DX009 (ip), vehicle: Klucel (hydroxypropylcellulose) (HPC) 115 % of control | dose: 6.25 mg/kg/injection, schedule: Q01DX009 (ip), vehicle: Klucel (hydroxypropylcellulose) (HPC) 108 % of control | dose: 6.25 mg/kg/injection, schedule: Q04DX003 (ip), vehicle: Klucel (hydroxypropylcellulose) (HPC) 109 % of control | dose: 12.5 mg/kg/injection, schedule: Q01DX009 (ip), vehicle: Klucel (hydroxypropylcellulose) (HPC) 94 % of control | dose: 12.5 mg/kg/injection, schedule: Q04DX003 (ip), vehicle: Klucel (hydroxypropylcellulose) (HPC) 113 % of control

CSc1ccc(NC(=O)C(C)Oc2ccccc2)cc1 (stereo unspecified)
inactive: dose: 50.0 mg/kg/injection, schedule: Q01DX001 (ip), vehicle: saline with Tween-80 95 % of control | [11] 87 % of control and 92 % of control | [12] 97 % of control and 102 % of control | [13] 94 % of control and 96 % of control | [14] 87 % of control | [15] 93 % of control and 102 % of control | dose: 200.0 mg/kg/injection, schedule: Q04DX002 (ip), vehicle: saline with Tween-80 96 % of control and 105 % of control | dose: 400.0 mg/kg/injection, schedule: Q01DX001 (ip), vehicle: saline with Tween-80 87 % of control and 90 % of control | [16] 95 % of control and 98 % of control | dose: 400.0 mg/kg/injection, schedule: Q04DX002 (ip), vehicle: saline with Tween-80 96 % of control and 101 % of control

Cc1cc(C)n(/N=C/c2ccc3c(c2)CCC3)c(=O)c1C#N
inactive: [6] 95 % of control | [7] 90 % of control

O=C(O)CCC1CCCCC1=O (stereo unspecified)
inactive: dose: 50.0 mg/kg/injection, schedule: Q01DX009 (ip), vehicle: Klucel (hydroxypropylcellulose) (HPC) 104 % of control | [4] 98 % of control | [8] 95 % of control | [5] 97 % of control | [9] 98 % of control | [6] 98 % of control

CCOC(=O)/C=C/Cc1cc(-c2ccccc2)ccc1O
inactive: dose: 100.0 mg/kg/injection, schedule: Q04DX003 (ip), vehicle: acetone 98 % of control | dose: 200.0 mg/kg/injection, schedule: Q04DX003 (ip), vehicle: acetone 98 % of control | dose: 400.0 mg/kg/injection, schedule: Q04DX003 (ip), vehicle: acetone 103 % of control

O=[N+]([O-])c1ccc2c(ccn2C2OCC(O)C(O)C2O)c1 (stereo unspecified)
inactive: dose: 25.0 mg/kg/injection, schedule: Q01DX005 (ip), vehicle: saline 94 % of control and 96 % of control | dose: 50.0 mg/kg/injection, schedule: Q01DX005 (ip), vehicle: saline 96 % of control and 92 % of control | dose: 50.0 mg/kg/injection, schedule: Q01DX009 (ip), vehicle: saline with Tween-80 98 % of control | dose: 100.0 mg/kg/injection, schedule: Q01DX005 (ip), vehicle: saline 93 % of control and 91 % of control | [12] 98 % of control | [15] 102 % of control | [16] 111 % of control

COc1ccc(-c2coc3cc(O)ccc3c2=O)cc1
inactive: [1] 96 % of control | [2] 96 % of control | [3] 96 % of control

O=C(c1ccccc1)C(O)(c1ccccc1)c1ccccc1
inactive: dose: 100.0 mg/kg/injection, schedule: Q04DX002 (ip), vehicle: Klucel (hydroxypropylcellulose) (HPC) 89 % of control | dose: 200.0 mg/kg/injection, schedule: Q04DX002 (ip), vehicle: Klucel (hydroxypropylcellulose) (HPC) 107 % of control | dose: 400.0 mg/kg/injection, schedule: Q04DX002 (ip), vehicle: Klucel (hydroxypropylcellulose) (HPC) 93 % of control

CC1(C)N=C(N)N=C(N)N1c1ccc(CCCCc2ccc(Cl)cc2Cl)cc1
inactive: dose: 5.0 mg/kg/injection, schedule: Q01DX001 (ip), vehicle: saline 88 % of control | dose: 10.0 mg/kg/injection, schedule: Q01DX001 (ip), vehicle: saline 92 % of control | dose: 20.0 mg/kg/injection, schedule: Q01DX001 (ip), vehicle: saline 103 % of control

O=c1[nH]ncc2c1[nH]c1cccc(Cl)c12
inactive: dose: 200.0 mg/kg/injection, schedule: Q04DX003 (ip), vehicle: carboxymethylcellulose (CMC) 88 % of control | dose: 400.0 mg/kg/injection, schedule: Q04DX003 (ip), vehicle: carboxymethylcellulose (CMC) 92 % of control

Cn1c(=O)c2c(ncn2CCOC(=O)C(C)(C)Oc2ccc(Cl)cc2)n(C)c1=O
inactive: [8] 92 % of control | [5] 90 % of control | [9] 105 % of control | [6] 96 % of control | [7] 93 % of control

Nc1nc(SCc2ccccc2)c2ncn(C3CCCC3)c2n1
inactive: dose: 100.0 mg/kg/injection, schedule: Q01DX001 (ip), vehicle: carboxymethylcellulose (CMC) 95 % of control | dose: 200.0 mg/kg/injection, schedule: Q01DX001 (ip), vehicle: carboxymethylcellulose (CMC) 95 % of control | dose: 400.0 mg/kg/injection, schedule: Q01DX001 (ip), vehicle: carboxymethylcellulose (CMC) 92 % of control | dose: 700.0 mg/kg/injection, schedule: Q01DX015 (ip), vehicle: carboxymethylcellulose (CMC) 101 % of control | dose: 800.0 mg/kg/injection, schedule: Q01DX015 (ip), vehicle: carboxymethylcellulose (CMC) 101 % of control

N/C(Cc1ccc(Cl)cc1)=N/O
inactive: [5] 104 % of control | [6] 102 % of control

CSc1ccc(NC(=O)C(O)C(O)C(O)C(O)CO)cc1 (stereo unspecified)
inactive: [1] 89 % of control | [2] 100 % of control | [3] 95 % of control

CNCCC(=O)NCC1C(c2ccccc2)C1c1ccccc1 (stereo unspecified)
inactive: dose: 6.25 mg/kg/injection, schedule: Q04DX002 (ip), vehicle: saline with Tween-80 97 % of control | dose: 12.5 mg/kg/injection, schedule: Q04DX002 (ip), vehicle: saline with Tween-80 93 % of control and 96 % of control | dose: 25.0 mg/kg/injection, schedule: Q04DX002 (ip), vehicle: saline with Tween-80 100 % of control | dose: 50.0 mg/kg/injection, schedule: Q04DX002 (ip), vehicle: saline with Tween-80 91 % of control | [13] 93 % of control and 88 % of control

O=c1[nH]c(=O)n2n1CC(Br)C(Br)C2 (stereo unspecified)
inactive: [12] 94 % of control | [1] 106 % of control | [15] 96 % of control | [2] 110 % of control | [16] 100 % of control | [3] 94 % of control

NC(=S)c1cccc(OCCc2ccccc2)c1
inactive: [11] 97 % of control | [14] 102 % of control
